Two compounds from patent US20030224420A1, “Method for isolating and measuring proliferation of long-term label retaining cells and stem cells” (priority 2002, published 2003) can be followed below.

The nature of data set [1]: Body weight and toxicity during BrdU administration (p.o. drinking water vs i.p.). Format: in vivo.
The test system of data set [2] is colon epithelial cells (CECs). Description: Flow cytometric (FACS) analysis of BrdU labeled colon epithelial cell nuclei. The data set is classed as in vivo, Fisher 344 rats. The conditions noted are these: for BrdU+ cells in proliferative fraction of the crypt: FACS. Here is the method: For BrdU labeling, rats received BrdU in drinking water at 1 mg/ml. Glucose (1 g/100 ml) was added to the water to mask the taste of BrdU. BrdU was added to the water, then the bottle was shaken. Next, glucose was added and the bottle was vigorously shaken to dissolve BrdU completely. It took approximately 1-2 min for BrdU to dissolve completely. It was important to prepare BrdU drinking water freshly everyday during the feeding period.
Colon was excised fresh at necropsy. Feces were removed with 0.015M NaCl solution with 0.001M dithiothreitol (DTT) and the colon was placed in cold, 1.6% Joklik's modified medium (JMMEM, Gibco Invitrogen, Grand Island, N.Y.) for 120 minutes. CECs from different proliferative fractions of the crypt were separated sequentially using the nonenzymatic, mechanical dissociation method described elsewhere. CEC from different crypt fractions (basal proliferative fraction and top mature fraction) were collected by incubating the colon sac filled with PBS buffers containing chelating agents. The tissue was shaken in a 37° C. water bath for 20 minutes, then 15 minutes and 30 minutes for collecting CECs from top, middle and the basal fractions, respectively. The middle fraction (transitional fraction) was discarded. The collected CECs were then separated from intraepithelial lymphocytes and other contaminants by applying to a discontinuous Percoll (Amersham Biosciences, Uppsala, Sweden) gradient centrifugation, with 45% Percoll overlaid on 75% Percoll. CEC from the proliferative fraction (the base of the crypts) were collected and used for FACS and GC/MS analysis since LRCs are known to be located at this region. The CECs from the mature (top) fractions from the rats that were given ^2H2O for 2-3 weeks were used as fully turned over CECs to represent the maximal ^2H labeling in DNA. A part of the distal and proximal colon was used for immunohistochemistry.
The staining protocol was as described elsewhere, and was modified for CECs. The CECs were separated from colon (as described above) and filtered through a Falcon tube 2235. The cells were then fixed with ice cold 95% ethanol while vortexing, centrifugated at 800 g for 3 minutes and washed in cold PBS (without Ca^++ and Mg^++) once. […] Two million cells were washed of ethanol in 150 ul of PBS, incubated in 1% NP 40 (Sigma) solution in the refrigerator for 30 minutes, centrifugated at 10,000 g, and the pellet was collected and washed in PBS. Two million CEC nuclei were added to each well in 96 well plates (round bottom), then 150 ul of 1% paraformaldehyde with 0.01% Tween 20 in PBS was added for additional fixation and permeabilization. The cells were kept at room temperature for 30 minutes then at 4° C. for 15 minutes, prior to centrifugation at 800 g for 3 minutes and washing in cold PBS once. Next, 150 μl of DNase I (50 kunits/ml) was added at room temperature for 15 minutes to allow denaturation of nuclear DNA. […] For negative controls, an equal concentration of mouse IgG1 FITC isotype control antibodies (Becton Dickinson, Cat 349041) were used to correct for background fluorescence. […]
At the end of each BrdU labeling period (0 week delabed), we analyzed the percent of BrdU positive cells from the proliferative fraction of the crypt (where LRCs have previously been located). This maximal BrdU labeled sample was analyzed to confirm the efficacy of BrdU administration. […]
Background: A flow cytometer gives signals particle by particle.

A further data set deals with CEC. Nature of the data set: CEC proliferation rates of BrdU treated vs control rats (preliminary study). The conditions noted are these: data not shown. The data set is classed as in vivo. The text has this:
There have been reports on the inhibitory effects of BrdU on cell proliferation and differentiation in vitro and in vivo at various concentrations and in various cell types. Since BrdU toxicity is strain and cell type specific, we cannot completely assess possible toxic effects from BrdU on the proliferation of LRCs.

Data set [3] in a line: Body water ^2H2O enrichment by GC/MS during ^2H2O administration. The data set is classed as in vivo, Fisher 344 rats. The conditions noted are these: for Body Water ^2H2O Enrichment: 8% ^2H2O drinking water. Here is the method: Rats were primed with 99.9% ^2H2O i.p. at the start of the ^2H2O labeling period. The volume injected was 4% of the estimated body water volume. Then they were maintained on 8% ^2H2O enriched drinking water ad libitum for up to 8 weeks (19).
Body water enrichments were measured by a gas chromatographic/mass spectrometer (GC/MS) technique that we have described previously.
Body water ^2H2O enrichments were measured from plasma obtained from rats sacrificed at each time point. Achievement of plateau ^2H enrichments in body water during long-term ^2H2O administration is desirable because it signifies a stable DNA synthesis precursor enrichment for labeling of DNA. Body water enrichment from rats that were on ^2H2O for 2-8 weeks reached expected values and remained at those plateau levels (3.9-4.3%) throughout the study (FIG. 3).

“Also recorded” adds a separate entry of the source.

For the compound `O=c1[nH]c(=O)n([C@H]2C[C@H](O)[C@@H](CO)O2)cc1Br` [BrdU, bromodeoxyuridine], in data set [1] (BrdU 1 mg/ml in drinking water, long-term), the “Toxicity or weight loss” value is “did not cause any detectable toxicity or weight loss”. Further, the “Toxicity (body weight)” value in data set [1] (BrdU i.p., repeated injections once a day for 8 days) is recorded as “caused toxicities; also recorded: caused weight loss; also recorded: toxicities were observed”. Further, the “BrdU+ cells in proliferative fraction, mean±SD over labeling periods” value in data set [2] (0 week delabeled, mean of 2, 4 and 8 weeks BrdU p.o.) stood at 77±12%. Further, the “BrdU positive cells after 4 and 8 weeks of BrdU administration” value in data set [2] (4 and 8 weeks BrdU p.o.) was 65-77%. For the same compound, the “BrdU+ cells in proliferative fraction of the crypt” value in data set [2] (after 4 weeks BrdU p.o., 0 week delabeled) stood at 65%; in data set [2] (after 8 weeks BrdU p.o., 0 week delabeled) it was 77%. In addition, the “BrdU incorporation / fluorescence of CEC, i.p. vs p.o.” value in data set [2] (repeated i.p. injection once a day for 8 days compared with p.o. drinking water) is “more BrdU incorporation and thus higher fluorescence”. Besides, the “CEC proliferation rates vs control rats” value in the data set on CEC was “same CEC proliferation rates as the control rats”.
For the compound `[2H]O[2H]` [^2H2O, deuterated water], the figures for the “Body Water ^2H2O Enrichment” value in data set [3] (Week 1 of ^2H2O administration), in data set [3] (Week 3 of ^2H2O administration) and in data set [3] (Week 4 of ^2H2O administration) were 4.29, 3.93 and 4.30, respectively. In data set [3] (after stopping ^2H2O intake, found previously in applicant's lab), the “Delabeling time for ^2H2O to be almost completely washed out of the body water pool” value is recorded as “less than 1 week”. Moreover, the “Body water enrichment, plateau levels” value in data set [3] (rats on ^2H2O for 2-8 weeks, measured from plasma) is reported as 3.9-4.3%. Moreover, the “Body water enrichment maintained throughout the study” value in data set [3] (throughout the study) is listed as 4.2±0.2 % of total body water.
